Assay results from patent publication US20090238852A1, “METHODS FOR CONTROLLING INTRACELLULAR CALCIUM LEVELS ASSOCIATED WITH AN ISCHEMIC EVENT” (University of Utah Research Foundation, priority 2008, published 2009).

Key:
[1] = human, in vivo
Description: A study was performed in eight (8) healthy adult male and female subjects to assess the effects of a bolus dose and 72 hour infusion of 2-O, 3-O desulfated heparin. The study was a Phase I study with a three day treatment period. Doses were adjusted to maintain an aPTT level of 40-45 seconds. Subjects were between the ages of 18 and 60, were not pregnant, and were normal in body weight. They all had normal coagulation function and hemoglobin values at baseline.
Subjects received an initial bolus of 8 mg/kg of ODSH over 15 minutes, followed by 72 hours continuous infusion beginning at 0.58 mg/kg/hr. For each subject ODSH as a 50 mg/ml formulation was diluted with normal saline and administered as a bolus infused over 15 minutes containing the calculated amount of ODSH the subject was to receive, followed by infusion of ODSH diluted in saline. The infusion dose was adjusted to maintain an aPTT of 40-45 seconds. Immediately before infusion and after the start of each infusion, blood was drawn at periodic times (over a total 72 hour period) to monitor the effect of infusion on the following laboratory studies: activated partial thromboplastin time (aPTT), prothrombin time (PT), activated clotting time (ACT), and ODSH plasma level. Serum chemistries and a complete blood count were checked immediately before infusion and again periodically for up to 240 hours later. Using values for aPTT and ODSH levels, pharmacokinetic parameters were calculated by noncompartmental methods using a commercial software program (PhAST 2.3-001). The following pharmacokinetic parameters were calculated as above: Cmax; Kel; tmax; AUC O-t; AUCinf, t1/2; CL; and Vdss.

[2] = system: rabbit ventricular myocytes; experiment: [Ca^++]i during paced aerobic metabolism (PH) with the Na^+ channel opener ATX; assay type: cell-based; details: n = 7
Description: In these studies, intracellular calcium concentration [Ca^++]i was measured by flow cytometry. Measurement of isolated mouse and rabbit ventricular myocyte [Ca^2+]i and [Na^+]i by flow cytometry has been described (Zhang et al., J. Cardiovasc. Pharmacol. 51: 443-449 (2008); Li et al., J. Mol. Cell. Cardiol. 33: 2145-2155 (2001)). [Ca^++]i was measured with the Ca^++ sensitive fluorescent probe, Fluo 3-AM (Molecular Probes, Eugene, Oreg.), using a FACScan (Becton-Dickinson, MA). The cells were exposed to 4 μmol/L Fluo-3 AM for 30 min at 37° C. The cells were then separated into aliquots. After 40 min of wash, the cells were exposed to paced metabolic ischemia (MI) for 45 min at 37° C. Metabolic ischemia was accomplished by incubating cells in a glucose-free MKRBB solution (pH 7.40) containing 2 mmol/L sodium cyanide (NaCN) to impair mitochondrial and glycolytic generation of ATP. To reproduce the situation in the beating ischemic heart, during the period of metabolic ischemia, myocytes were placed in a 5-well chamber with equal volumes of myocyte suspensions from the same heart dissociation placed in each well. The chamber was water bathed to maintain temperature at 37° C. and bubbled with 5% CO2 in air to keep myocytes in suspension. […] Approximately 2×10^3 myocytes were analyzed to calculate average emission fluorescence intensity in each sample. […] Only those cells with low fluorescence intensity at 670 nm (PI-negative cells or viable cells) were included in the comparative analysis of [Ca^++]i. The sample [Ca^2+]i values were calculated by Mn^2+ quenching (Sugishita et al, 2001) and [Na^+]i values by comparison with a standard curve of varied [Na^+]i versus Na Green fluorescence. […] Results were expressed as means±SEM. […]
To further examine the role of ODSH as a Na^+ inhibitor, additional experiments were performed in which the Na^+ channel opener amenone toxin II (ATX) was added to medium in a final concentration of 20 nmol/L to open the cardiac myocyte membrane Na^+ channel. […] Intracellular calcium concentration [Ca^++]i was monitored as earlier. […]

2-O, 3-O desulfated heparin [ODSH]
CL [1]: 10.2 mL/h/kg
Vdss [1]: 48.9 mL/kg
t1/2 [1]: 3.3 h
tmax [1]: 30 min
AUC, range across subjects ([1]; 8 mg/kg): 3,528-4,694 μg hr/mL
CL, range across subjects ([1]; 8 mg/kg): 8.8 to 11.8 mL/h/kg
Cmax, range across subjects ([1]; 8 mg/kg): 131 to 192 µg/mL
Vdss, range across subjects ([1]; 8 mg/kg): 23.7 to 66.2 mL/kg
t1/2, range across subjects ([1]; 8 mg/kg): 1.9 to 4.4 h
[Ca^++]i ([2]; PH + ODSH 100 μg/mL + ATX 20 nmol/L, PH + ATX 529.1 ± 29.3): 412.9 ± 26.7^+ nM
[Ca^++]i ([2]; PH + ODSH 100 μg/mL, no ATX, PH alone 406.8 ± 15.9): 366.4 ± 21.1 nM
